Reference: ChEMBL document CHEMBL5338775, “Discovery of a Novel Class of PROTACs as Potent and Selective Estrogen Receptor α Degraders to Overcome Endocrine-Resistant Breast Cancer In Vitro and In Vivo” (J Med Chem, 2023)
Active and inactive are the calls of the source. The rule behind the calls is not given here.

Legend:
[1] = target: T1, Estrogen receptor beta (Homo sapiens, UniProt Q92731); assay: Binding affinity to ERbeta (unknown origin) assessed as relative binding affinity incubated for 2 hrs by fluorescence polarization assay relative to estradiol
[2] = Selectivity ratio of relative binding affinity for ERalpha (unknown origin) to relative binding affinity to ERbeta (unknown origin)
[3] = Selectivity index, ratio of Ki for ERalpha (unknown origin) to Ki for ERbeta (unknown origin)
[4] = target: T2, von Hippel-Lindau disease tumor suppressor/Estrogen receptor (Homo sapiens) (UniProt P03372+P40337); assay: PROTAC activity at VHL/wild type ERalpha in ER-positive human MCF7 cells assessed as induction of ERalpha degradation at 1 uM incubated for 12 hrs by Western blot analysis; assay type: cell-based
[5] = target: T2, von Hippel-Lindau disease tumor suppressor/Estrogen receptor (Homo sapiens); assay: PROTAC activity at VHL/wild type ERalpha in ER-positive human T47D cells assessed as induction of ERalpha degradation at 2 uM incubated for 12 hrs by Western blot analysis; assay type: cell-based
[6] = target: T2, von Hippel-Lindau disease tumor suppressor/Estrogen receptor (Homo sapiens); assay: PROTAC activity at VHL/ERalpha in ER-positive human tamoxifen-resistant LCC2 cells assessed as induction of ERalpha degradation at 2 uM incubated for 12 hrs by Western blot analysis; assay type: cell-based; settings: tamoxifen-resistant LCC2 cell
[7] = target: T2, von Hippel-Lindau disease tumor suppressor/Estrogen receptor (Homo sapiens); assay: PROTAC activity at VHL/ERalpha in ER-positive human MCF7 cells assessed as induction of ERalpha degradation at 0.01 to 10 uM incubated for 12 hrs by Western blot analysis; assay type: cell-based; settings: dose 0.01-10 µM
[8] = target: T2, von Hippel-Lindau disease tumor suppressor/Estrogen receptor (Homo sapiens); assay: PROTAC activity at VHL/ERalpha in ER-positive human MCF7 cells assessed as induction of ERalpha degradation at 1 uM incubated for 12 hrs in presence of N-ethyl-5,6-bis(4-hydroxyphenyl)-N-(4-methoxyphenyl)-7-oxabicyclo[2.2.1]hept-5-ene-2-sulfonamide by Western blot analysis; assay type: cell-based
[9] = target: T2, von Hippel-Lindau disease tumor suppressor/Estrogen receptor (Homo sapiens); assay: PROTAC activity at VHL/ERalpha in ER-positive human MCF7 cells assessed as induction of ERalpha degradation at 1 uM incubated for 12 hrs in presence of (2S,4R)-1-[(2S)-2-amino-3,3-dimethylbutanoyl]-4-hydroxy-N-[(1S)-1-[4-(4-methyl-1,3-thiazol-5-yl)phenyl]ethyl]pyrrolidine-2-carboxamide by Western blot analysis; assay type: cell-based
[10] = target: T2, von Hippel-Lindau disease tumor suppressor/Estrogen receptor (Homo sapiens); assay: PROTAC activity at VHL/ERalpha in ER-positive human MCF7 cells assessed as induction of ERalpha degradation at 1 uM incubated for 12 hrs in presence of proteasome inhibitor, MG132 by Western blot analysis; assay type: cell-based
[11] = target: von Hippel-Lindau disease tumor suppressor/Estrogen receptor beta (Homo sapiens) (UniProt Q92731+P40337); assay: PROTAC activity at VHL/ERbeta in human NCI-H1975 cells assessed as induction of ERbeta degradation at 1 to 10 uM incubated for 12 hrs by Western blot analysis; assay type: cell-based; settings: dose 1-10 µM
[12] = tested on: MCF7; assay: Induction of apoptosis in human MCF7 cells at 1 to 10 uM incubated for 24 hrs by Annexin V-FITC/PI staining based analysis; assay type: functional, cell-based; settings: dose 1-10 µM
[13] = tested on: MCF7; assay: Induction of cell cycle arrest in human MCF7 cells at 1 to 10 uM incubated for 24 hrs; assay type: functional, cell-based; settings: dose 1-10 µM
[14] = tested on: MCF7; assay: Antitumor activity against human tamoxifen-sensitive MCF7 cells xenografted in BALB/c nude mouse assessed as inhibition of tumor growth at 1 to 10 micromol/kg, ip administered once every 2 days and measured every 2 days; assay type: functional, organism-based; settings: dose 1-10 µmol/kg
[15] = Toxicity in BALB/c nude mouse xenografted with human tamoxifen-sensitive MCF7 cells assessed as reduction in body weight at 1 to 10 micromol/kg, ip administered once every 2 days and measured every 2 days; assay type: organism-based; settings: in vivo, 48 h, dose 1-10 µmol/kg
[16] = Toxicity in BALB/c nude mouse xenografted with human tamoxifen-sensitive MCF7 cells assessed as mortality at 1 to 10 micromol/kg, ip administered once every 2 days and measured every 2 days; assay type: organism-based; settings: in vivo, 48 h, dose 1-10 µmol/kg
[17] = Toxicity in BALB/c nude mouse xenografted with human tamoxifen-sensitive MCF7 cells assessed as pathological changes in heart at 1 to 10 micromol/kg, ip administered once every 2 days by H and E staining based assay; assay type: organism-based; settings: in vivo, 48 h, dose 1-10 µmol/kg
[18] = Toxicity in BALB/c nude mouse xenografted with human tamoxifen-sensitive MCF7 cells assessed as pathological changes in liver at 1 to 10 micromol/kg, ip administered once every 2 days by H and E staining based assay; assay type: organism-based; settings: in vivo, 48 h, dose 1-10 µmol/kg
[19] = Toxicity in BALB/c nude mouse xenografted with human tamoxifen-sensitive MCF7 cells assessed as pathological changes in kidney at 1 to 10 micromol/kg, ip administered once every 2 days by H and E staining based assay; assay type: organism-based; settings: in vivo, 48 h, dose 1-10 µmol/kg
[20] = tested on: Mus musculus; assay: In vivo protac activity at VHL/ERalpha in BALB/c nude mouse xenografted with human tamoxifen-sensitive MCF7 cells assessed as reduction in ERalpha protein levels in tumor at 1 to 10 micromol/kg, ip administered once every 2 days by Western blot analysis; assay type: functional, organism-based; settings: dose 1-10 µmol/kg
[21] = tested on: MCF7; assay: Antitumor activity against human tamoxifen-sensitive MCF7 cells xenografted in BALB/c nude mouse assessed as increase in tumor necrosis area at 5 micromol/kg, ip administered once every 2 days by […] staining based analysis; assay type: functional, organism-based; settings: dose 5.0 µmol/kg
[22] = tested on: MCF7; assay: Antitumor activity against human tamoxifen-sensitive MCF7 cells xenografted in BALB/c nude mouse assessed as reduction in cell proliferation at 5 micromol/kg, ip administered once every 2 days by ki67 staining based analysis; assay type: functional, organism-based; settings: dose 5.0 µmol/kg
[23] = tested on: tamoxifen-resistant LCC2 cell; assay: Antitumor activity against human ER-positive tamoxifen-resistant LCC2 cells xenografted in BALB/c nude mouse assessed as reduction in tumor growth at 5 micromol/kg, ip administered once every 2 days and measured every 2 days; assay type: functional, organism-based; settings: dose 5.0 µmol/kg
[24] = tested on: T47D; assay: Inhibition of nascent GREB1 RNA synthesis in human T47D cells incubated for 6 hrs by 4-thiouridine incorporation assay; assay type: functional, cell-based
[25] = tested on: T47D; assay: Inhibition of nascent IGFBP4 RNA synthesis in human T47D cells incubated for 6 hrs by 4-thiouridine incorporation assay; assay type: functional, cell-based
[26] = target: T3, Estrogen receptor (Homo sapiens) (UniProt P03372); assay: Inhibition of ERalpha binding to DNA in human T47D cells assessed as reduction in protein occupancy incubated for 6 hrs by ChIP-seq analysis; assay type: cell-based
T3 sequence (whole entry): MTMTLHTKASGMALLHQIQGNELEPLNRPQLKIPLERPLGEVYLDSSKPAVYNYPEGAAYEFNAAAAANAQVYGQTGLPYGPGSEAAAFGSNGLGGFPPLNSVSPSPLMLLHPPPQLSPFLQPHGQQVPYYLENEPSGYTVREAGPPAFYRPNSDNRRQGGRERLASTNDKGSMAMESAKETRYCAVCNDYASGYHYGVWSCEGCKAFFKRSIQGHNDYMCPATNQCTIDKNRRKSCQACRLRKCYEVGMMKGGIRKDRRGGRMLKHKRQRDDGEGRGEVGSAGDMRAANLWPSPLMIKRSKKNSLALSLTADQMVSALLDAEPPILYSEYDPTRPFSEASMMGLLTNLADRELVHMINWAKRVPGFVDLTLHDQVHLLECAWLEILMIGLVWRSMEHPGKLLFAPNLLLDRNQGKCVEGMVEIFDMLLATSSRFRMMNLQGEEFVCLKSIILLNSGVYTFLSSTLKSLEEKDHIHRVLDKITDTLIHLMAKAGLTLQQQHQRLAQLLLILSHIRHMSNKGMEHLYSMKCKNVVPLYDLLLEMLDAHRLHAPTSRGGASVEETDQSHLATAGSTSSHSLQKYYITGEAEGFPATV

[27] = tested on: T47D; assay: Inhibition of gene transcription in human T47D cells assessed as reduction in Pol II occupancy at GREB1 promoter region by ChIP-seq analysis; assay type: functional, cell-based
[28] = tested on: T47D; assay: Inhibition of gene transcription in human T47D cells assessed as reduction in Pol II occupancy at IGFBP4 promoter region by ChIP-seq analysis; assay type: functional, cell-based
[29] = tested on: T47D; assay: Inhibition of gene transcription in human T47D cells assessed as reduction in H3K27ac levels in GREB1 promoter region by ChIP-seq analysis; assay type: functional, cell-based
[30] = tested on: T47D; assay: Inhibition of gene transcription in human T47D cells assessed as reduction in H3K27ac levels in IGFBP4 promoter region by ChIP-seq analysis; assay type: functional, cell-based
[31] = target: T4, Estrogen receptor (Homo sapiens, UniProt P03372)
T4 sequence (P03372 whole entry): T3 sequence (whole entry)

[32] = target: T1, Estrogen receptor beta
[33] = tested on: MCF7; assay: cells; settings: Homo sapiens, MCF7, 72 h
[34] = cells; settings: Homo sapiens, Tamoxifen-resistant LCC2 cell, 72 h
[35] = tested on: T47D; assay: cells; settings: Homo sapiens, 72 h
[36] = tested on: T47D; assay: cells; settings: Homo sapiens, 72 h; remark: listed apart in the source
[37] = tested on: T47D; assay: cells; settings: Homo sapiens, 72 h; remark: listed apart in the source
[38] = tested on: MDA-MB-231; assay: cells; settings: Homo sapiens, MDA-MB-231, 72 h
[39] = in vitro; settings: human, MCF-10A cells

T2 sequence (P40337 whole entry, looked up, one chain of several): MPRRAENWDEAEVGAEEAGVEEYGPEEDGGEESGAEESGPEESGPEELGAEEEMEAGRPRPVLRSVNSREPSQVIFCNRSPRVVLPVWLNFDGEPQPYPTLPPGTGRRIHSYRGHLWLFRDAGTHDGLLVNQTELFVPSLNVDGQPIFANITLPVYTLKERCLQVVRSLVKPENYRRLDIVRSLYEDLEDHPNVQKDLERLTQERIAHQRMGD
T1 sequence (Q92731 whole entry): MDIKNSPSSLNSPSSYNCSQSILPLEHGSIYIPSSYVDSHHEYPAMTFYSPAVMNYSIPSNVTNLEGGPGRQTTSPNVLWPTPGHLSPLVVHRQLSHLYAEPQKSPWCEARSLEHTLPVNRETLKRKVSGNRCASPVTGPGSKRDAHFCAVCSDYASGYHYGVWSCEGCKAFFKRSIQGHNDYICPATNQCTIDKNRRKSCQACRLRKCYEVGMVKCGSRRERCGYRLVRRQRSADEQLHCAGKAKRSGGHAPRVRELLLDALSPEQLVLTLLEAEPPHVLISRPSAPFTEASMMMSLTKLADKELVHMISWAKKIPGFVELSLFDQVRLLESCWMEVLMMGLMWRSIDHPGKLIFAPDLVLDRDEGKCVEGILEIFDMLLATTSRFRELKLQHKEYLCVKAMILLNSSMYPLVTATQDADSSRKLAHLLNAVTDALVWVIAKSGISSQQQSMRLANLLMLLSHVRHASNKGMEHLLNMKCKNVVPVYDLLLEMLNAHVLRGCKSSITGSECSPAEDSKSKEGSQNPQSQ
von Hippel-Lindau disease tumor suppressor/Estrogen receptor beta (Homo sapiens), sequence (P40337 whole entry, looked up): as the sequence (P40337 whole entry, looked up, one chain of several) above
von Hippel-Lindau disease tumor suppressor/Estrogen receptor beta (Homo sapiens), sequence (Q92731 whole entry, looked up): as the sequence (Q92731 whole entry) above

CCN(c1ccc(OCCCCCC(=O)N[C@H](C(=O)N2C[C@H](O)C[C@H]2C(=O)N[C@@H](C)c2ccc(-c3scnc3C)cc2)C(C)(C)C)cc1)S(=O)(=O)C1CC2OC1C(c1ccc(O)cc1)=C2c1ccc(O)cc1 (some centres undefined)
RBA [1]: 0.06%
Selectivity ratio [2]: 1.33
Ratio Ki [3]: 5.16
Activity [4]: Active
Activity [5]: Active
Activity [6]: Active
Activity [7]: Active
Activity [8]: inactive
Activity [9]: inactive
Activity [10]: inactive
Activity [11]: inactive
Activity [12]: Active
Activity [13]: Active
inhibition [14]: Active
Activity [15]: Non-Toxic
Activity [16]: Non-Toxic
Activity [17]: Non-Toxic
Activity [18]: Non-Toxic
Activity [19]: Non-Toxic
Activity [20]: Active
Activity [21]: Active
Activity [22]: Active
Activity [23]: Active
inhibition [24]: Active
inhibition [25]: Active
inhibition [26]: Active
inhibition [27]: Active
inhibition [28]: Active
inhibition [29]: Active
inhibition [30]: Active
Ki [31]: 2540 nM
Ki [32]: 13.1 µM
IC50 [33]: 310 nM
IC50 [34]: 12.3 µM
IC50 [35]: 7.51 µM
IC50 [36]: 8.12 µM
IC50 [37]: 9.52 µM
IC50 [38]: > 100 µM
IC50 at 72 h [39]: > 100 µM
